From patent publication US12660819B2, “Herbicidal derivatives” (SYNGENTA CROP PROTECTION AG, priority 2020, dated 2026)

Experiments:
Type in all cases: in vivo
[1] = test system: Amaranthus palmeri (AMAPA); assay: Pre-emergence Test (glasshouse, percentage damage to the plant); settings: 1000 g/ha unless otherwise stated, Amaranthus palmeri
[2] = test system: Ipomoea hederacea (IPOHE); assay: as above; settings: 1000 g/ha unless otherwise stated, Ipomoea hederacea
Setaria faberi (SETFA) [3] = assay: as above; settings: 1000 g/ha unless otherwise stated, Setaria faberi
Zea mays (ZEAMX) [4] = assay: as above; settings: 1000 g/ha unless otherwise stated, Zea mays
Zea mays (ZEAMX) [5] = assay: Post-emergence Test (glasshouse, percentage damage to the plant); settings: post-emergence; 1000 g/ha unless otherwise stated; evaluated after 13 days
Summary of the method: (§1)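 After sowing in standard soil, pots were kept at 24/16 °C (day/night), 14 h light and 65% humidity. They were sprayed at 1000 g/ha unless otherwise stated, watered twice daily, and assessed for percentage damage at 13 days on a 1–5 scale.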

[6] = test system: Ipomoea hederacea (IPOHE); assay: as above; settings: post-emergence; 1000 g/ha unless otherwise stated; evaluated after 13 days
Summary of the method: as §1

[7] = test system: Amaranthus retoflexus (AMARE); assay: as above; settings: post-emergence; 1000 g/ha unless otherwise stated; evaluated after 13 days
Summary of the method: (§2)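 Damage was rated 13 days after treatment and expressed on a five-point scale: 5=81-100%, 4=61-80%, 3=41-60%, 2=21-40%, 1=0-20%. Spray was applied at 1000 g/ha unless otherwise stated, from acetone/water (50:50) with 0.5% Tween 20, to sown pots.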

[8] = test system: Echinochloa crus-galli (ECHCG); assay: as above; settings: post-emergence; 1000 g/ha unless otherwise stated; evaluated after 13 days
Summary of the method: as §2

[9] = test system: Amaranthus palmeri (AMAPA); assay: as above; settings: post-emergence; 1000 g/ha unless otherwise stated; evaluated after 13 days
Summary of the method: as §2

Setaria faberi (SETFA) [10] = assay: as above; settings: post-emergence; 1000 g/ha unless otherwise stated; evaluated after 13 days
Summary of the method: as §1

[11] = test system: Amaranthus retoflexus (AMARE); assay: Pre-emergence Test (glasshouse, percentage damage to the plant); settings: 1000 g/ha unless otherwise stated, Amaranthus retoflexus
[12] = test system: Echinochloa crus-galli (ECHCG); assay: as above; settings: 1000 g/ha unless otherwise stated, Echinochloa crus-galli

Row | SMILES | percentage damage to the plant, AMAPA (five-point scale) [1] | percentage damage to the plant, IPOHE (five-point scale) [2] | percentage damage to the plant, SETFA (five-point scale) (Setaria faberi (SETFA) [3]) | percentage damage to the plant, ZEAMX (five-point scale) (Zea mays (ZEAMX) [4]) | ZEAMX, percentage damage caused to the plant (five-point scale) (Zea mays (ZEAMX) [5]) | IPOHE, percentage damage caused to the plant (five-point scale) [6] | AMARE, percentage damage caused to the plant (five-point scale) [7] | ECHCG, percentage damage caused to the plant (five-point scale) [8] | AMAPA, percentage damage caused to the plant (five-point scale) [9] | SETFA, percentage damage caused to the plant (five-point scale) (Setaria faberi (SETFA) [10]) | percentage damage to the plant, AMARE (five-point scale) [11] | percentage damage to the plant, ECHCG (five-point scale) [12]
1 | CCn1c(C)c(-c2cccc(C(F)(F)F)c2F)c(=O)c(C(=O)O)c1-c1ccc(Cl)c(Cl)c1 [Compound 207, 2-(3,4-dichlorophenyl)-1-ethyl-5-[2-fluoro-3-(trifluoromethyl)phenyl]-6-methyl-4-oxo-pyridine-3-carboxylic acid] | 3 (3=41-60%) | 3 (3=41-60%) | 5 (5=81-100%) | 1 (1=0-20%) | 3 (3=41-60%) | 4 (4=61-80%) | 3 (3=41-60%) | 4 (4=61-80%) | 3 (3=41-60%) | 4 (4=61-80%) | 3 (3=41-60%) | 2 (2=21-40%)
2 | CCn1c(C)c(-c2ccc(Cl)cc2)c(=O)c(C(=O)O)c1-c1cnc(Cl)c(Cl)c1 [Compound 208, 5-(4-chlorophenyl)-2-(5,6-dichloro-3-pyridyl)-1-ethyl-6-methyl-4-oxo-pyridine-3-carboxylic acid] | 5 (5=81-100%) | 2 (2=21-40%) | 2 (2=21-40%) | 0 | 4 (4=61-80%) | 2 (2=21-40%) | 4 (4=61-80%) | 3 (3=41-60%) | 4 (4=61-80%) | 5 (5=81-100%) | 1 (1=0-20%) | 1 (1=0-20%)
3 | CCn1c(C)c(-c2ccc(Cl)cc2Cl)c(=O)c(C(=O)O)c1-c1cnc(Cl)c(Cl)c1 [Compound 209, 5-(2,4-dichlorophenyl)-2-(5,6-dichloro-3-pyridyl)-1-ethyl-6-methyl-4-oxo-pyridine-3-carboxylic acid] | 5 (5=81-100%) | 1 (1=0-20%) | 4 (4=61-80%) | 0 | 4 (4=61-80%) | 4 (4=61-80%) | 5 (5=81-100%) | 5 (5=81-100%) | 5 (5=81-100%) | 5 (5=81-100%) | 5 (5=81-100%) | 4 (4=61-80%)
4 | CCn1c(C)c(-c2ccc(F)cc2F)c(=O)c(C(=O)O)c1-c1cnc(Cl)c(Cl)c1 [Compound 210, 2-(5,6-dichloro-3-pyridyl)-5-(2,4-difluorophenyl)-1-ethyl-6-methyl-4-oxo-pyridine-3-carboxylic acid] | 4 (4=61-80%) | 0 | 2 (2=21-40%) | 0 | 3 (3=41-60%) | 3 (3=41-60%) | 5 (5=81-100%) | 4 (4=61-80%) | 4 (4=61-80%) | 4 (4=61-80%) | 3 (3=41-60%) | 1 (1=0-20%)
5 | CCn1c(C)c(-c2ccc(F)cc2)c(=O)c(C(=O)O)c1-c1cnc(Cl)c(Cl)c1 [Compound 211, 2-(5,6-dichloro-3-pyridyl)-1-ethyl-5-(4-fluorophenyl)-6-methyl-4-oxo-pyridine-3-carboxylic acid] | 4 (4=61-80%) | 0 | 0 | 0 | 1 (1=0-20%) | 1 (1=0-20%) | 2 (2=21-40%) | 1 (1=0-20%) | 3 (3=41-60%) | 1 (1=0-20%) | 1 (1=0-20%) | 1 (1=0-20%)
6 | CCn1c(C)c(-c2ccc(F)cc2)c(=O)c(C(=O)OC)c1-c1cnc(Cl)c(Cl)c1 [Compound 212, methyl 2-(5,6-dichloro-3-pyridyl)-1-ethyl-5-(4-fluorophenyl)-6-methyl-4-oxo-pyridine-3-carboxylate] | 1 (1=0-20%) | 0 | 3 (3=41-60%) | 0 | 0 | 0 | 1 (1=0-20%) | 0 | 1 (1=0-20%) | 0 | 0 | 2 (2=21-40%)
7 | CCn1c(C)c(-c2ccc(Cl)cc2Cl)c(=O)c(C(=O)OC)c1-c1cnc(Cl)c(Cl)c1 [Compound 214, methyl 5-(2,4-dichlorophenyl)-2-(5,6-dichloro-3-pyridyl)-1-ethyl-6-methyl-4-oxo-pyridine-3-carboxylate] | 0 | 0 | 0 | 0 | 1 (1=0-20%) | 0 | 2 (2=21-40%) | 0 | 2 (2=21-40%) | 1 (1=0-20%) | 0 | 0
8 | CCn1c(C)c(-c2ccc(Cl)cc2)c(=O)c(C(=O)OC)c1-c1cnc(Cl)c(Cl)c1 [Compound 215, methyl 5-(4-chlorophenyl)-2-(5,6-dichloro-3-pyridyl)-1-ethyl-6-methyl-4-oxo-pyridine-3-carboxylate] | 3 (3=41-60%) | 1 (1=0-20%) | 4 (4=61-80%) | 0 | 3 (3=41-60%) | 1 (1=0-20%) | 4 (4=61-80%) | 3 (3=41-60%) | 4 (4=61-80%) | 3 (3=41-60%) | 4 (4=61-80%) | 2 (2=21-40%)
9 | CCn1c(CBr)c(-c2ccc(Cl)cc2)c(=O)c(C(=O)OC)c1-c1ccc(Cl)c(Cl)c1 [Compound 218, methyl 6-(bromomethyl)-5-(4-chlorophenyl)-2-(3,4-dichlorophenyl)-1-ethyl-4-oxo-pyridine-3-carboxylate] | 0 | 0 | 0 | 0 | 1 (1=0-20%) | 0 | 3 (3=41-60%) | 1 (1=0-20%) | 3 (3=41-60%) | 2 (2=21-40%) | 0 | 0
